In patent publication US10570179B2, “Substituted urea depsipeptide analogs as activators of the CLPP endopeptidase” (priority 2016, dated 2020):
Values after ≈ are worked out from the molar mass of the structure shown. Read-outs that look alike come from different tables or passages of the source. Numbered stars: 1 amine (or outer) side, 2 acyl side, 3 side chain; on linkers, the order of the positions; unused ones are H or OH. Bridge positions count the residues as written; N and C are the ends. Square brackets hold non-standard residues; d marks the D form. Peptide text beside a SMILES is read from it. * marks the point of attachment. X6 = O=C([C@@H]1CS(=O)(=O)CCN1[*:1])[*:2]; Phe(3-Me) = Cc1cccc(C[C@H](N)C(=O)O)c1; Pro(4S-Me) = C[C@@H]1CN[C@H](C(=O)O)C1; NH(4-Cl-2-F-phenyl) = Fc1cc(Cl)ccc1N*; Pro(4R-Me) = C[C@H]1CN[C@H](C(=O)O)C1; Propanoyl(3-NMe2) = CN(C)CCC(=O)*; X1 = O=C([C@@H]1CSCCN1[*:1])[*:2]; Hyp = O=C(O)[C@@H]1C[C@@H](O)CN1; NH(4-Me-phenyl) = Cc1ccc(N*)cc1; aThr = C[C@H](O)[C@H](N)C(=O)O; Pip = O=C(O)[C@@H]1CCCCN1; CO = O=C([*:1])[*:2]

Key:
[1] = Plasma protein binding, rapid equilibrium dialysis; assay type: in vitro ADME, mouse
Solubility determination = assay type: physicochemical; details: for solubility kinetic at 10 min: 22 °C, aqueous buffer, kinetic from dmso stock
Procedure, shortened: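 DMSO stock spiked into DPBS at 100 µM final, in triplicate, shaken 10 min, then centrifuged 20 min at 22 °C. Supernatant quantified by UPLC-UV and single-ion-recording MS against DMSO calibration standards (0.098–100 µM), using 1/x²-weighted linear regression.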

[2] = plasma binding, % Bound, mouse plasma
[3] = solubility in DPBS, 100 μM test samples, LCMS, read-out: LCMS

Row | Structure (SMILES) | Mouse ([1]; mouse, 4 h, 10 μM, pH 7.4) [%] | μsol (μM) (Solubility determination) | solubility kinetic at 10 min (Solubility determination) [µM] | Mouse [1, 2] [%] | solubility kinetic at 10 min (Solubility determination; [3]) [µM] | μsol (μM) (Solubility determination; solubility)
1 | Cc1cccc(C[C@H](NC(=O)Nc2ccc(Cl)cc2F)C(=O)N[C@@H]2C(=O)N3CCC[C@H]3C(=O)N3CCSC[C@H]3C(=O)N[C@@H](C)C(=O)N3C[C@H](C)C[C@H]3C(=O)O[C@H]2C)c1 [Compound 38, (S)-2-(3-(4-CHLORO-2-FLUOROPHENYL)UREIDO)-3-(M-TOLYL)-N-((6AS,12S,13S,15AS,17R,21S,23AR)-13,17,21-TRIMETHYL-6,11,15,20,23-PENTAOXOOCTADECAHYDRO-6H,11H,15H-DIPYRROLO[2,1-C:2′,1′-L][1,4]THIAZINO[3,4-I][1]OXA[4,7,10,13]TETRAAZACYCLOHEXADECIN-12-YL)PROPANAMIDE] ({NH(4-Cl-2-F-phenyl)-CO}-[Phe(3-Me)][aThr]P[X1]A[Pro(4R-Me)]; ester 2-C) | 96.0 ± 6.0 | 1.7 ± .70 µM | 0.011 ± 0.011 (≈ 0.00927 µg/mL) | – | – | –
2 | Cc1cccc(C[C@H](NC(=O)Nc2ccc(Cl)cc2F)C(=O)N[C@@H]2C(=O)N3CCC[C@H]3C(=O)N3CCS(=O)(=O)C[C@H]3C(=O)N[C@@H](C)C(=O)N3C[C@H](C)C[C@H]3C(=O)O[C@H]2C)c1 [Compound 40, (S)-2-(3-(4-CHLORO-2-FLUOROPHENYL)UREIDO)-3-(M-TOLYL)-N-((6AS,12S,13S,15AS,17R,21S,23AR)-13,17,21-TRIMETHYL-2,2-DIOXIDO-6,11,15,20,23-PENTAOXOOCTADECAHYDRO-6H,11H,15H-DIPYRROLO[2,1-C:2′,1′-L][1,4]THIAZINO[3,4-I][1]OXA[4,7,10,13]TETRAAZACYCLOHEXADECIN-12-YL)PROPANAMIDE] ({NH(4-Cl-2-F-phenyl)-CO}-[Phe(3-Me)][aThr]P[X6]A[Pro(4R-Me)]; ester 2-C) | 99.4 ± 9.4 | 0 µM | 2.21 ± 0.208 (≈ 1.93 µg/mL) | – | – | –
3 | Cc1cccc(C[C@H](NC(=O)Nc2ccc(Cl)cc2F)C(=O)N[C@@H]2C(=O)N3C[C@H](O)C[C@H]3C(=O)N3CCSC[C@H]3C(=O)N[C@@H](C)C(=O)N3C[C@H](C)C[C@H]3C(=O)O[C@H]2C)c1 [Compound 41, (S)-2-(3-(4-CHLORO-2-FLUOROPHENYL)UREIDO)-N-((6AS,8R,12S,13S,15AS,17R,21S,23AR)-8-HYDROXY-13,17,21-TRIMETHYL-6,11,15,20,23-PENTAOXOOCTADECAHYDRO-6H,11H,15H-DIPYRROLO[2,1-C:2′,1′-L][1,4]THIAZINO[3,4-I][1]OXA[4,7,10,13]TETRAAZACYCLOHEXADECIN-12-YL)-3-(M-TOLYL)PROPANAMIDE] ({NH(4-Cl-2-F-phenyl)-CO}-[Phe(3-Me)][aThr][Hyp][X1]A[Pro(4R-Me)]; ester 2-C) | 99.9 ± 9.9 | 2.4 ± .40 µM | 1.4 ± 0.4 (≈ 1.2 µg/mL) | – | – | –
4 | Cc1ccc(NC(=O)N[C@@H](Cc2cccc(C)c2)C(=O)N[C@@H]2C(=O)N3C[C@H](O)C[C@H]3C(=O)N3CCSC[C@H]3C(=O)N[C@@H](C)C(=O)N3C[C@H](C)C[C@H]3C(=O)O[C@H]2C)cc1 [Compound 42, (S)—N-((6AS,8R,12S,13S,15AS,17R,21S,23AR)-8-HYDROXY-13,17,21-TRIMETHYL-6,11,15,20,23-PENTAOXOOCTADECAHYDRO-6H,11H,15H-DIPYRROLO[2,1-C:2′,1′-L][1,4]THIAZINO[3,4-I][1]OXA[4,7,10,13]TETRAAZACYCLOHEXADECIN-12-YL)-3-(M-TOLYL)-2-(3-(P-TOLYL)UREIDO)PROPANAMIDE] ({NH(4-Me-phenyl)-CO}-[Phe(3-Me)][aThr][Hyp][X1]A[Pro(4R-Me)]; ester 2-C) | – | – | – | 97.4 ± 7.4 | 29.2 ± 9.2 (≈ 23.9 µg/mL) | 29.7 ± 9.7 µM
5 | Cc1ccc(NC(=O)N[C@@H](Cc2cccc(C)c2)C(=O)N[C@@H]2C(=O)N3CCC[C@H]3C(=O)N3CCCC[C@H]3C(=O)N[C@@H](C)C(=O)N3C[C@@H](C)C[C@H]3C(=O)O[C@H]2C)cc1 [Compound 45, (S)-3-(M-TOLYL)-2-(3-(P-TOLYL)UREIDO)-N-((2S,6S,8AS,14AS,20S,21S,23AS)-2,6,21-TRIMETHYL-5,8,14,19,23-PENTAOXOOCTADECAHYDRO-1H,5H,14H,19H-PYRIDO[2,1-I]DIPYRROLO[2,1-C:2′,1′-L][1]OXA[4,7,10,13]TETRAAZACYCLOHEXADECIN-20-YL)PROPANAMIDE] ({NH(4-Me-phenyl)-CO}-[Phe(3-Me)][aThr]P[Pip]A[Pro(4S-Me)]; ester 2-C) | – | – | – | 92.1 ± 1.3 | 44.5 ± 2.7 (≈ 35 µg/mL) | 44.7 ± 4.2 µM
6 | Cc1cccc(C[C@H](NC(=O)Nc2ccc(Cl)cc2F)C(=O)N[C@@H]2C(=O)N3C[C@H](OC(=O)CCN(C)C)C[C@H]3C(=O)N3CCCC[C@H]3C(=O)N[C@@H](C)C(=O)N3C[C@H](C)C[C@H]3C(=O)O[C@H]2C)c1 [Compound 46, (2R,6S,8AS,14AS,16R,20S,21S,23AS)-20-((S)-2-(3-(4-CHLORO-2-FLUOROPHENYL)UREIDO)-3-(M-TOLYL)PROPANAMIDO)-2,6,21-TRIMETHYL-5,8,14,19,23-PENTAOXOOCTADECAHYDRO-1H,5H,14H,19H-PYRIDO[2,1-I]DIPYRROLO[2,1-C:2′,1′-L][1]OXA[4,7,10,13]TETRAAZACYCLOHEXADECIN-16-YL 3-(DIMETHYLAMINO)PROPANOATE] ({NH(4-Cl-2-F-phenyl)-CO}-[Phe(3-Me)][aThr][Hyp](Propanoyl(3-NMe2))[Pip]A[Pro(4R-Me)]; ester 2-C) | 93.0 ± 0.8 | 12.1 ± 1.5 µM | 195 ± 27 (≈ 183 µg/mL) | – | – | –
7 | Cc1ccc(NC(=O)N[C@@H](Cc2cccc(C)c2)C(=O)N[C@H]2COC(=O)[C@@H]3CCCN3C(=O)[C@H](C)NC(=O)[C@@H]3CCCCN3C(=O)[C@@H]3C[C@@H](O)CN3C2=O)cc1 [Compound 49, (S)—N-((6S,8AS,14AS,16R,20S,23AS)-16-HYDROXY-6-METHYL-5,8,14,19,23-PENTAOXOOCTADECAHYDRO-1H,5H,14H,19H-PYRIDO[2,1-I]DIPYRROLO[2,1-C:2′,1′-L][1]OXA[4,7,10,13]TETRAAZACYCLOHEXADECIN-20-YL)-3-(M-TOLYL)-2-(3-(P-TOLYL)UREIDO)PROPANAMIDE] | – | – | – | 99.4 ± 9.4 | 17 ± 6.97 (≈ 13.1 µg/mL) | 8.5 ± .51 µM
